The results in this text go back to patent US20120295838A1, “Selective poly-substituted glycine antibiotics and related compositions” (priority 2008, published 2012).

One data set relates to human erythrocytes. Nature of the data set: Hemolysis assay. The class given is cell-based. Summed up:
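Peptoid dilution series (1:2 in PBS) combined with equal volume of 20 vol % human red cells from heparinised blood, 37 °C for 1 h. Released hemoglobin measured as supernatant absorbance at 350 nm post-centrifugation, scaled between PBS-only wells and 0.2 vol % Triton X-100 total lysis.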

For a further data set, the system named is E. coli ATCC 35218. It is filed as cell-based. Conditions: ATCC 35218.
The nature of a further data set: MTS assay, NIH 3T3 cells. The class given is cell-based, mouse. Conditions: mouse, NIH 3T3 fibroblast cells. Summed up: (§1)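 NIH/3T3 cells seeded at 5,000 per well, grown a day in DMEM with 10% FBS, then washed and exposed to serially diluted peptoid in HBSS together with MTS reagent. Absorbance at 490 nm read after 3 hours at 37 °C as a measure of metabolic activity; mean of six replicates.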

For data set [1], the system named is NIH 3T3 mouse fibroblast cells. As to the kind of experiment: MTS assay, NIH 3T3 cells. It is filed as cell-based. A digest of the protocol:
as §1

Data set [2] deals with A549 lung epithelial cells. Nature of the data set: MTS assay, A549 cells. The procedure:
The biocompatibility of selected oligomers with A549 lung epithelial cells was evaluated using the MTS [3-(4,5-dimethylthiazol-2-yl)-5-(3-carboxymethoxyphenyl)-2-(4-sulfophenyl)-2H-tetrazolium] assay.
MTS Assays. A549 carcinoma-derived lung epithelial cells (ATTC CCL-185) were cultured in Ham's F12K media (ATTC, Manassas, Va.). A peptoid solution plate (100 μL/well) was prepared by serial dilution of aqueous peptoid stocks in media. Peptoid solutions were transferred onto a 96-well plate of day-old cell monolayers containing 100 μL/well media with 5000 cells/well. MTS reagent (Promega Corporation, Madison, Wis.) (40 μL/well) was added to each well and the plate was incubated at 37° C. for 3 h, after which absorbance at 490 nm was determined. Percent inhibition was determined as [1−(A−Atest blank)/(Acontrol−Ablank)]×100, where A is the absorbance of the test well and Acontrol the average absorbance of wells with cells exposed to media and MTS (no peptoid). Atest blank (media, MTS, and peptoid) and Ablank (media and MTS) were background absorbances measured in the absence of cells. The average of six replicates are reported, and error bars show one standard deviation.

A further data set has as its system B. subtilis ATCC 6633. The class given is cell-based. As to conditions: ATCC 6633. A digest of the protocol: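 Broth microdilution MICs per CLSI M7-A6 in cation-adjusted Mueller-Hinton broth, using 1×10^6 CFU/mL inoculum added 1:1 to twofold serial peptoid dilutions. Values reproducible across three independent experiments, each with two parallel trials.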
The subject of data set [3] is Staphylococcus aureus NRS120. The class given is cell-based. As to conditions: NRS120. The procedure:
(§2) Antibacterial assays. MICs were determined according to CLSI M7-A6 protocols in a 96-well microtiter plate. In test wells, 50 uL bacterial inoculum (5×10^5 CFU/ml) in Mueller-Hinton broth (MHB) was added to 50 μL peptoid solution in MHB (prepared by 1:2 serial dilutions). Positive controls contained 50 μL inoculum and 50 μL MHB without peptoid. […] MIC values reported were reproducible between three independent experimental replicates, each consisting of two parallel trials. Broad-spectrum antimicrobial susceptibility testing was performed against BSL2 pathogens by Nova Biologicals, Inc. (Conroe, Tex.).
(§3) Broad-spectrum antibacterial assays. MICs of compounds were determined by microdilution procedure in Mueller-Hinton broth (MHB) in accordance with CLSI M7-A6 protocols in a manner similar to that described for the screen antibacterial assays. Inoculated microtiter plates were incubated at 35° C. for 24 hours prior to the result being recorded. Four ATCC strains that were used as standards are recommended by CLSI: Pseudomonas aeruginosa ATCC 27853, Escherichia coli ATCC 25922, Staphylococcus aureus ATCC 29213 and Enterococcus faecalis ATCC 29212. Other strains from the ATCC collection include Proteus vulgaris ATCC 49132, Proteus mirabilis ATCC 35659, Klebsiella pneumoniae ATCC 33495, Enterobacter aerogenes ATCC 35029 and Serratia marcescens ATCC 13880. S. aureus NRS100 (COL) is a well characterized methicillian-resistant S. aureus (MRSA) strain. The strains S. aureus VAN1 and S. aureus VAN2, vancomycin-resistant MRSA strains that were isolated in Michigan and Pennsylvania, were the first vancomycin-resistant strains clinically isolated. S. aureus NRS 119 and S. aureus NRS 120 are linezolid-resistant isolates from the Network on Antimicrobial Resistance in S. aureus (NARSA) collection. E. faecalis 99 and E. faecium 106 are vancomycin-resistant enterococcal strains.

A further data set has as its system Enterococcus faecalis 99. The class given is cell-based. Conditions: 99. The procedure:
as §2, §3

For data set [4], the system named is Staphylococcus aureus VAN1. It is filed as cell-based. As to conditions: VAN1. The procedure:
as §2, §3

Data set [5] relates to Staphylococcus aureus NRS100 (COL). It is filed as cell-based. As to conditions: NRS100 (COL). The procedure:
as §2, §3

For data set [6], the system named is Staphylococcus aureus VAN2. The class given is cell-based. As to conditions: VAN2. The procedure: as §2, §3
In data set [7] the test system is Staphylococcus aureus NRS119. The class given is cell-based. As to conditions: NRS119. The procedure: as §2, §3
The test system of data set [8] is Enterobacter aerogenes ATCC 35029. The class given is cell-based. Conditions: ATCC 35029. The procedure: as §2, §3
The subject of another data set is Enterococcus faecium 106. The class given is cell-based. As to conditions: 106. The procedure: as §2, §3
The test system of data set [9] is Proteus vulgaris ATCC 49132. It is filed as cell-based. As to conditions: ATCC 49132. As to the method:
as §2, §3

For data set [10], the system named is Klebsiella pneumoniae ATCC 33495. It is filed as cell-based. Conditions: ATCC 33495. The procedure:
as §2, §3

Data set [11] has as its system Staphylococcus aureus ATCC 29213. It is filed as cell-based. Conditions: ATCC 29213. As to the method: as §2, §3
Data set [12] relates to Pseudomonas aeruginosa ATCC 27853. It is filed as cell-based. Conditions: ATCC 27853. As to the method:
as §2, §3

The subject of data set [13] is Escherichia coli ATCC 25922. The class given is cell-based. Conditions: ATCC 25922. The procedure:
as §2, §3

Data set [14] concerns Enterococcus faecalis ATCC 29212. The class given is cell-based. Conditions: ATCC 29212. The procedure: as §2, §3

SMILES strings stand for the structures. In brackets after ≈: the same amount, converted by molar mass. Square brackets hold non-standard residues; d marks the D form. Peptide text beside a SMILES is read from it. Nspe = C[C@H](NCC(=O)O)c1ccccc1; Nphe = O=C(O)CNCc1ccccc1; Nlys = NCCCCNCC(=O)O

In turn, `C[C@@H](c1ccccc1)N(CC(N)=O)C(=O)CN(C(=O)CN(CCCCN)C(=O)CN(C(=O)CN(C(=O)CN(CCCCN)C(=O)CN(C(=O)CN(C(=O)CN(CCCCN)C(=O)[C@@H]1CCCN1C(=O)CN(C(=O)CNCCCCN)[C@@H](C)c1ccccc1)[C@@H](C)c1ccccc1)[C@@H](C)c1ccccc1)[C@@H](C)c1ccccc1)[C@@H](C)c1ccccc1)[C@@H](C)c1ccccc1` [1-Pro3, H-Nlys-Nspe-L-Pro-(Nlys-Nspe-Nspe)3-NH2] (H-[Nlys][Nspe]P[Nlys][Nspe][Nspe][Nlys][Nspe][Nspe][Nlys][Nspe][Nspe]-NH2) yielded an HD10 in the data set with human erythrocytes of 74 µM. Also, the “E. coli MIC” value with E. coli ATCC 35218 was determined as 12.5 µM. Besides, the midpoint of cytotoxicity in the data set “MTS assay, NIH 3T3 cells”, the CC50 at 3 h, lay at 12 µM. This compound also had an ID50 in data set [1] of 12 µM.

Regarding `C[C@@H](c1ccccc1)N(CC(N)=O)C(=O)CN(C(=O)CN(CCCCN)C(=O)[C@@H]1CCCN1C(=O)CN(C(=O)CN(CCCCN)C(=O)CN(C(=O)CN(C(=O)CN(CCCCN)C(=O)CN(C(=O)CN(C(=O)CNCCCCN)[C@@H](C)c1ccccc1)[C@@H](C)c1ccccc1)[C@@H](C)c1ccccc1)[C@@H](C)c1ccccc1)[C@@H](C)c1ccccc1)[C@@H](C)c1ccccc1` [1-Pro9, H-(Nlys-Nspe-Nspe)2-Nlys-Nspe-L-Pro-Nlys-Nspe-Nspe-NH2] (H-[Nlys][Nspe][Nspe][Nlys][Nspe][Nspe][Nlys][Nspe]P[Nlys][Nspe][Nspe]-NH2), the “E. coli MIC” value in the data set on E. coli ATCC 35218 was 12.5 µM. For the same compound, in the data set “MTS assay, NIH 3T3 cells”, the 50% cytotoxic concentration (CC50) at 3 h came to 24 µM. For the same compound, in data set [1], the ID50 amounted to 24 µM.

Consider `C[C@@H](c1ccccc1)N(CC(N)=O)C(=O)CN(C(=O)CN(CCCCN)C(=O)CN(C(=O)CN(C(=O)CN(CCCCN)C(=O)[C@@H]1CCCN1C(=O)CN(C(=O)CN(CCCCN)C(=O)CN(C(=O)CN(C(=O)CNCCCCN)[C@@H](C)c1ccccc1)[C@@H](C)c1ccccc1)[C@@H](C)c1ccccc1)[C@@H](C)c1ccccc1)[C@@H](C)c1ccccc1)[C@@H](C)c1ccccc1` [1-Pro6, H-Nlys-Nspe-Nspe-Nlys-Nspe-L-Pro-(Nlys-Nspe-Nspe)2-NH2] (H-[Nlys][Nspe][Nspe][Nlys][Nspe]P[Nlys][Nspe][Nspe][Nlys][Nspe][Nspe]-NH2), for which the “ID10 relative to that of pexiganan” value in data set [2] was 10 times. Moreover, in the data set on human erythrocytes, the HD10 was 83 µM and the HD50 is > 200 µM. Also, in the data set on B. subtilis ATCC 6633, the “MIC for B. subtilis ATCC 6633” value is 1.6 µM. In addition, in the data set with E. coli ATCC 35218, the “E. coli MIC” value came to 12.5 µM and the “MIC for E. coli ATCC 35218” value stood at 12.5 µM. The same compound displayed a CC50 at 3 h in “MTS assay, NIH 3T3 cells” of 18 µM.

Consider `C[C@@H](c1ccccc1)N(CC(N)=O)C(=O)CN(C(=O)CN(CCCCN)C(=O)CN(C(=O)CN(C(=O)CN(CCCCN)C(=O)CN(C(=O)CN(C(=O)CN(CCCCN)C(=O)CN(C(=O)CN(C(=O)CN(CCCCN)C(=O)CN(C(=O)CN(C(=O)CNCCCCN)[C@@H](C)c1ccccc1)[C@@H](C)c1ccccc1)[C@@H](C)c1ccccc1)[C@@H](C)c1ccccc1)[C@@H](C)c1ccccc1)[C@@H](C)c1ccccc1)[C@@H](C)c1ccccc1)[C@@H](C)c1ccccc1)[C@@H](C)c1ccccc1` [115 mer, H-(Nlys-Nspe-Nspe)5-NH2], for which the “cytotoxicity (in words)” value in data set [2] (A549 lung epithelial cells, MTS, FIG. 2) is reported as “no worse than pexiganan”.

Turning to `C[C@@H](c1ccccc1)N(CC(N)=O)C(=O)CN(Cc1ccccc1)C(=O)CN(CCCCN)C(=O)CN(C(=O)CN(Cc1ccccc1)C(=O)CN(CCCCN)C(=O)CN(C(=O)CN(Cc1ccccc1)C(=O)CN(CCCCN)C(=O)CN(C(=O)CN(Cc1ccccc1)C(=O)CNCCCCN)[C@@H](C)c1ccccc1)[C@@H](C)c1ccccc1)[C@@H](C)c1ccccc1` [1-Npm2,5,8,11, H-(Nlys-Npm-Nspe)4-NH2] (H-[Nlys][Nphe][Nspe][Nlys][Nphe][Nspe][Nlys][Nphe][Nspe][Nlys][Nphe][Nspe]-NH2), the MIC was 16 µg/mL (≈ 9.07 µM) in data set [3]; 64 µg/mL (≈ 36.3 µM) against Enterococcus faecalis 99; 8 µg/mL (≈ 4.54 µM) in [4]; 8 µg/mL (≈ 4.54 µM) in data set [5]; 8 µg/mL (≈ 4.54 µM) in [6]; 16 µg/mL (≈ 9.07 µM) in [7]. Moreover, the minimum inhibitory concentration (MIC) turned out to be 64 µg/mL (≈ 36.3 µM) in data set [8]; 4 µg/mL (≈ 2.27 µM) in the data set with Enterococcus faecium 106; 64 µg/mL (≈ 36.3 µM) in data set [9]; 16 µg/mL (≈ 9.07 µM) in data set [10]; 8 µg/mL (≈ 4.54 µM) in data set [11]; 64 µg/mL (≈ 36.3 µM) in data set [12]. The MIC in data set [13] and in data set [14] was 8 µg/mL (≈ 4.54 µM) throughout. For the same compound, the “E. coli MIC” value in the data set on E. coli ATCC 35218 was found to be 6.3 µM. The same compound yielded a CC50 at 3 h in the data set “MTS assay, NIH 3T3 cells” of 6.8 µM. Also, the ID50 in data set [1] was found to be 6.8 µM.

Consider `C[C@@H](c1ccccc1)N(CC(N)=O)C(=O)CN(Cc1ccccc1)C(=O)CN(CCCCN)C(=O)CN(Cc1ccccc1)C(=O)CN(Cc1ccccc1)C(=O)CN(CCCCN)C(=O)CN(Cc1ccccc1)C(=O)CN(Cc1ccccc1)C(=O)CN(CCCCN)C(=O)CN(Cc1ccccc1)C(=O)CN(Cc1ccccc1)C(=O)CNCCCCN` [1achiral-Nspe12, H-(Nlys-Npm-Npm)3-(Nlys-Npm-Nspe)-NH2], for which the HD50 in the data set with human erythrocytes is > 200 µM. In the data set with E. coli ATCC 35218, the “E. coli MIC” value came out at 6.3 µM. The compound further came in with a CC50 at 3 h in the data set “MTS assay, NIH 3T3 cells” of 15 µM. Further, the ID50 in data set [1] was 15 µM.
